Test results from PMC3985777 (Biochemistry, 2014).

Experiments:
HasAp [1] = target: HasAp (Pseudomonas aeruginosa, UniProt G3XD33, H83A); test: biochemical
HasAp [2] = target: HasAp (Pseudomonas aeruginosa, UniProt G3XD33, Y75A); test: biochemical

## C=CC1=C(C)C2=Cc3c(C=C)c(C)c4[n]3[Fe]([Cl])[n]3c(c(C)c(CCC(=O)O)c3=CC3=NC(=C4)C(C)=C3CCC(=O)O)=CC1=N2 [hemin]
HasAp [1]
  Kd: 30 µM
HasAp [2]
  Kd: 129 µM
